# Data: the supplement of paper PMC10733146
# What was measured:
# Assay in all cases: viability relative to DMSO control (fraction); higher = less drug effect (more viable cells)
# Conditions in all cases: 48 h
# [1] = tested on: primary CLL patient cells (S043)
# Outline: (§1)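 Cells were incubated for 48 h at 37 °C and 5% CO2 in RPMI-1640 with penicillin/streptomycin, L-glutamine and human serum, at 4 × 10^4 cells per well in 384-well plates with compounds pre-plated at five concentrations, one well each. These were primary mononuclear tumour cells, fresh or cryopreserved, Ficoll-isolated from blood or bone marrow or obtained from processed lymph node. Viability values are CellTiter-Glo luminescence relative to the median of 16 inner DMSO wells.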
# [2] = tested on: primary DLBCL patient cells (S076)
# Outline: as §1
# [3] = tested on: primary AML patient cells (S021)
# Outline: as §1
# [4] = tested on: primary AML patient cells (S012)
# Outline: as §1
# [5] = tested on: primary AML patient cells (S011)
# Outline: as §1
# [6] = tested on: primary DLBCL patient cells (S049)
# Outline: as §1
# [7] = tested on: primary AML patient cells (S019)
# Outline: as §1
# [8] = tested on: primary AML patient cells (S025)
# Outline: as §1
# [9] = tested on: primary AML patient cells (S081)
# Outline: as §1
# [10] = tested on: primary AML patient cells (S017)
# Outline: as §1
# [11] = tested on: primary AML patient cells (S006)
# Outline: as §1
# [12] = tested on: primary AML patient cells (S091)
# Outline: as §1
# [13] = tested on: primary AML patient cells (S085)
# Outline: as §1
# [14] = tested on: primary AML patient cells (S089)
# Outline: as §1
# [15] = tested on: primary AML patient cells (S002)
# Outline: as §1
# [16] = tested on: primary AML patient cells (S037)
# Outline: as §1
# [17] = tested on: primary T-NHL patient cells (S058)
# Outline: as §1
smiles,measurement,setting,value
CO[C@H]1C[C@@H]2CC[C@@H](C)[C@@](O)(O2)C(=O)C(=O)N2CCCC[C@H]2C(=O)O[C@H]([C@H](C)C[C@@H]2CC[C@@H](OC(=O)C(C)(CO)CO)[C@H](OC)C2)CC(=O)[C@H](C)/C=C(\C)[C@@H](O)[C@@H](OC)C(=O)[C@H](C)C[C@H](C)/C=C/C=C/C=C/1C [Temsirolimus],viability,[1]; 0.032 µM,0.749
same,viability,[1]; 0.16 µM,0.745
same,viability,[1]; 0.8 µM,0.738
same,viability,[1]; 4 µM,0.733
same,viability,[1]; 20 µM,0.692
same,viability,[2]; 0.032 µM,0.821
same,viability,[2]; 0.16 µM,0.753
same,viability,[2]; 0.8 µM,0.805
same,viability,[2]; 4 µM,0.765
same,viability,[2]; 20 µM,0.616
same,viability,[3]; 0.032 µM,0.761
same,viability,[3]; 0.16 µM,0.846
same,viability,[3]; 0.8 µM,0.818
same,viability,[3]; 4 µM,0.737
same,viability,[3]; 20 µM,0.605
same,viability,[4]; 0.032 µM,0.814
same,viability,[4]; 0.16 µM,0.732
same,viability,[4]; 0.8 µM,0.85
same,viability,[4]; 4 µM,0.845
same,viability,[4]; 20 µM,0.702
same,viability,[5]; 0.032 µM,0.88
same,viability,[5]; 0.16 µM,0.805
same,viability,[5]; 0.8 µM,0.892
same,viability,[5]; 4 µM,0.84
same,viability,[5]; 20 µM,0.498
same,viability,[6]; 0.032 µM,1.02
same,viability,[6]; 0.16 µM,0.986
same,viability,[6]; 0.8 µM,0.987
same,viability,[6]; 4 µM,0.966
same,viability,[6]; 20 µM,0.794
same,viability,[7]; 0.032 µM,0.909
same,viability,[7]; 0.16 µM,0.834
same,viability,[7]; 0.8 µM,0.915
same,viability,[7]; 4 µM,0.873
same,viability,[7]; 20 µM,0.739
same,viability,[8]; 0.032 µM,0.914
same,viability,[8]; 0.16 µM,0.962
same,viability,[8]; 0.8 µM,0.883
same,viability,[8]; 4 µM,0.893
same,viability,[8]; 20 µM,0.754
same,viability,[9]; 0.032 µM,0.885
same,viability,[9]; 0.16 µM,0.884
same,viability,[9]; 0.8 µM,0.926
same,viability,[9]; 4 µM,0.969
same,viability,[9]; 20 µM,0.869
same,viability,[10]; 0.032 µM,0.724
same,viability,[10]; 0.16 µM,0.765
same,viability,[10]; 0.8 µM,0.739
same,viability,[10]; 4 µM,0.727
same,viability,[10]; 20 µM,0.634
same,viability,[11]; 0.032 µM,0.824
same,viability,[11]; 0.16 µM,0.746
same,viability,[11]; 0.8 µM,0.709
same,viability,[11]; 4 µM,0.65
same,viability,[11]; 20 µM,0.415
same,viability,[12]; 0.032 µM,0.697
same,viability,[12]; 0.16 µM,0.686
same,viability,[12]; 0.8 µM,0.659
same,viability,[12]; 4 µM,0.663
same,viability,[12]; 20 µM,0.611
same,viability,[13]; 0.032 µM,0.852
same,viability,[13]; 0.16 µM,0.752
same,viability,[13]; 0.8 µM,0.918
same,viability,[13]; 4 µM,0.79
same,viability,[13]; 20 µM,0.58
same,viability,[14]; 0.032 µM,0.752
same,viability,[14]; 0.16 µM,0.831
same,viability,[14]; 0.8 µM,0.673
same,viability,[14]; 4 µM,0.684
same,viability,[14]; 20 µM,0.719
same,viability,[15]; 0.032 µM,0.755
same,viability,[15]; 0.16 µM,0.706
same,viability,[15]; 0.8 µM,0.702
same,viability,[15]; 4 µM,0.62
same,viability,[15]; 20 µM,0.44
same,viability,[16]; 0.032 µM,0.966
same,viability,[16]; 0.16 µM,0.903
same,viability,[16]; 0.8 µM,0.957
same,viability,[16]; 4 µM,0.931
same,viability,[16]; 20 µM,0.807
same,viability,[17]; 0.032 µM,0.902
same,viability,[17]; 0.16 µM,0.809
same,viability,[17]; 0.8 µM,0.904
same,viability,[17]; 4 µM,0.873
same,viability,[17]; 20 µM,0.697
CC(=O)Nc1cccc(-n2c(=O)n(C3CC3)c(=O)c3c(Nc4ccc(I)cc4F)n(C)c(=O)c(C)c32)c1 [Trametinib],viability,[1]; 0.0008 µM,0.825
same,viability,[1]; 0.004 µM,0.769
same,viability,[1]; 0.02 µM,0.777
same,viability,[1]; 0.1 µM,0.748
same,viability,[1]; 0.5 µM,0.744
same,viability,[2]; 0.0008 µM,0.752
same,viability,[2]; 0.004 µM,0.789
same,viability,[2]; 0.02 µM,0.63
same,viability,[2]; 0.1 µM,0.706
same,viability,[2]; 0.5 µM,0.648
same,viability,[3]; 0.0008 µM,0.864
same,viability,[3]; 0.004 µM,0.697
same,viability,[3]; 0.02 µM,0.672
same,viability,[3]; 0.1 µM,0.598
same,viability,[3]; 0.5 µM,0.605
same,viability,[4]; 0.0008 µM,0.799
same,viability,[4]; 0.004 µM,0.808
same,viability,[4]; 0.02 µM,0.45
same,viability,[4]; 0.1 µM,0.406
same,viability,[4]; 0.5 µM,0.306
same,viability,[5]; 0.0008 µM,0.855
same,viability,[5]; 0.004 µM,0.925
same,viability,[5]; 0.02 µM,0.953
same,viability,[5]; 0.1 µM,0.931
same,viability,[5]; 0.5 µM,0.879
same,viability,[6]; 0.0008 µM,0.769
same,viability,[6]; 0.004 µM,0.834
same,viability,[6]; 0.02 µM,0.705
same,viability,[6]; 0.1 µM,0.729
same,viability,[6]; 0.5 µM,0.658
same,viability,[7]; 0.0008 µM,0.948
same,viability,[7]; 0.004 µM,0.944
same,viability,[7]; 0.02 µM,0.878
same,viability,[7]; 0.1 µM,0.919
same,viability,[7]; 0.5 µM,0.912
same,viability,[8]; 0.0008 µM,0.74
same,viability,[8]; 0.004 µM,0.618
same,viability,[8]; 0.02 µM,0.644
same,viability,[8]; 0.1 µM,0.561
same,viability,[8]; 0.5 µM,0.554
same,viability,[9]; 0.0008 µM,0.999
same,viability,[9]; 0.004 µM,0.935
same,viability,[9]; 0.02 µM,0.742
same,viability,[9]; 0.1 µM,0.651
same,viability,[9]; 0.5 µM,0.567
same,viability,[10]; 0.0008 µM,1.02
same,viability,[10]; 0.004 µM,1.1
same,viability,[10]; 0.02 µM,0.888
same,viability,[10]; 0.1 µM,0.852
same,viability,[10]; 0.5 µM,0.719
same,viability,[11]; 0.0008 µM,0.888
same,viability,[11]; 0.004 µM,0.939
same,viability,[11]; 0.02 µM,0.787
same,viability,[11]; 0.1 µM,0.86
same,viability,[11]; 0.5 µM,0.798
same,viability,[12]; 0.0008 µM,0.438
same,viability,[12]; 0.004 µM,0.308
same,viability,[12]; 0.02 µM,0.288
same,viability,[12]; 0.1 µM,0.299
same,viability,[12]; 0.5 µM,0.272
same,viability,[13]; 0.0008 µM,0.667
same,viability,[13]; 0.004 µM,0.618
same,viability,[13]; 0.02 µM,0.484
same,viability,[13]; 0.1 µM,0.456
same,viability,[13]; 0.5 µM,0.415
same,viability,[14]; 0.0008 µM,0.635
same,viability,[14]; 0.004 µM,0.57
same,viability,[14]; 0.02 µM,0.558
same,viability,[14]; 0.1 µM,0.529
same,viability,[14]; 0.5 µM,0.539
same,viability,[15]; 0.0008 µM,0.398
same,viability,[15]; 0.004 µM,0.432
same,viability,[15]; 0.02 µM,0.364
same,viability,[15]; 0.1 µM,0.437
same,viability,[15]; 0.5 µM,0.402
same,viability,[16]; 0.0008 µM,0.957
same,viability,[16]; 0.004 µM,0.969
same,viability,[16]; 0.02 µM,0.921
same,viability,[16]; 0.1 µM,0.899
same,viability,[16]; 0.5 µM,0.915
same,viability,[17]; 0.0008 µM,0.918
same,viability,[17]; 0.004 µM,0.98
same,viability,[17]; 0.02 µM,0.969
same,viability,[17]; 0.1 µM,0.967
same,viability,[17]; 0.5 µM,0.934
